Data on 26 compounds can be found in patent US9206124B2, “Treatment of drug-resistant cancer with 2-aryl-2-(3-indolyl) acetohydroxamates” (New Mexico Technical Research Foundation, priority 2013, dated 2015).

Assay [1] has as its system HeLa cervical adenocarcinoma cells. As to the kind of experiment: MTT antiproliferative assay, HeLa. The class given is cell-based. The following applies: Homo sapiens, ± SD, read-out: cell viability GI50, HeLa. The source says:
(§1) This finding led to an exploration of the SAR analyses by synthesizing the first generation compounds 3 containing diverse substituents at different positions in the 2-aryl-2-(3-indolyl)acetohydroxamate skeleton and testing this series for in vitro growth inhibition using the MTT colorimetric assay against two cell lines, human HeLa cervical and MCF-7 breast adenocarcinomas (Table 1). It emerged from these experiments that the substitution on the benzene ring of the indole moiety (R^2≠H) was not tolerated (e.g., 3abfa and 3acfa), whereas the nitrogen could be derivatized (R^1≠H) with only a small activity drop (e.g., 3bafa vs 3aafa).
(§2) Human cancer cell lines were obtained from the American Type Culture Collection (ATCC, Manassas, Va., USA), the European Collection of Cell Culture (ECACC, Salisbury, UK) and the Deutsche Sammlung von Mikroorganismen and Zellkulturen (DSMZ, Braunschweig, Germany). Human cervical adenocarcinoma HeLa cells were cultured in DMEM supplemented with 10% fetal bovine serum (FBS). Human mammary carcinoma MCF-7 cells were cultured in RPMI supplemented with 10% FBS. The U87 cells (ATCC HTB-14) were cultured in DMEM culture medium, while the A549 cells (DSMZ ACC107) were cultured in RPMI culture medium supplemented with 10% heat-inactivated FBS. The glioblastoma multiforme Hs683 (ATCC HTB-138) and the T98G (ATCC CRL-1690) cell lines were cultivated in DMEM supplemented with 10% FBS. The Human uterine sarcoma MES-SA and MES-SA/Dx5 cells were cultured in RPMI-1640 medium supplemented with 10% FBS with MES SA/Dx5 maintained in the presence of 500 nM Doxorubicin (Sigma). SKMEL-28 cells (ATCC HTB72) and U373 glioblastoma cells (ECACC 08061901) were cultured in RPMI culture medium supplemented with 10% heat-inactivated FBS. Cell culture media were supplemented with 4 mM glutamine (Lonza code BE17-605E), 100 μg/mL gentamicin (Lonza code 17-5182), and penicillin-streptomycin (200 units/ml and 200 μg/ml) (Lonza code 17-602E). Neurosphere culture GBM 031810 was established using known methods and maintained in Neurobasal medium (Invitrogen Carlsbad, Calif.) with B27 supplement (20 ul/ml; Invitrogen), Glutamax (10 ul/ml; Invitrogen), fibroblast growth factor-2 (20 ng/ml; Peprotech, Rocky Hill, N.J., USA), epidermal growth factor (20 ng/ml; Peprotech), heparin (32 IE/ml; Sigma Aldrich, St. Louis, Mo.), and penicillin-streptomycin (1×, Invitrogen). Growth factors and heparin were renewed twice weekly. All cell lines were cultured in T25 flasks, maintained and grown at 37° C., 95% humidity, 5% CO2.
(§3) Antiproliferative properties of the synthesized compounds were evaluated by the MTT assay. All compounds were dissolved in DMSO at a concentration of either 100 mM or 50 mM prior to cell treatment. The cells were trypsinized and seeded at 4×10^3 cells per well into 96-well plates. The cells were grown for 24 h, treated with compounds at concentrations ranging from 0.001 to 100 μM and incubated for 48 h in 200 μL media. 20 μL of MTT reagent in serum free medium (5 mg/mL) was added to each well and incubated further for 2 h. Media was removed and the resulting formazan crystals were re-solubilized in 200 μL of DMSO. A490 was measured using a Molecular Devices Thermomax plate reader. The experiments were performed in quadruplicate and repeated at least twice for each compound per cell line. Cells treated with 0.1% DMSO were used as a negative control; 1 μM phenyl arsine oxide (PAO) was used as a positive control.

Assay [2] relates to MCF-7 breast adenocarcinoma cells. The assay can be described thus: MTT antiproliferative assay, MCF-7. The class given is cell-based. The settings on record: Homo sapiens, ± SD, read-out: cell viability GI50, MCF7.
From the text: as §1, §2, §3
In general terms: Formazan colour is commonly taken as a measure of viable cells.

For assay [3], the system named is HeLa cervical and MCF-7 breast adenocarcinomas. As to the kind of experiment: In vitro growth inhibition (MTT). It counts as cell-based, human. The following applies: HeLa and MCF-7.
From the text: as §1, §3

The test system of assay [4] is U87 glioblastoma cells. As to the kind of experiment: MTT antiproliferative assay, U87. It counts as cell-based, human. The settings on record: FIG. 3; concentrations up to 100 μM. As for the experimental part: (§4) As part of the ongoing efforts aimed at identification of compounds active against cancer cells displaying resistance to proapoptotic agents, the selected 2-aryl-2-(3-indolyl)-acetohydroxamates were evaluated for in vitro growth inhibition against a panel of additional cancer cell lines including those resistant to various proapoptotic stimuli, such as human T98G and U87 glioblastoma and human A549 non-small-cell-lung cancer (NSCLC), as well as an apoptosis-sensitive tumor model, such as human Hs683 anaplastic oligodendroglioma, used as a reference. The data reveal that for the most part these compounds retain the single-digit antiproliferatve GI50 values in this challenging cancer cell panel.
as §2, §3

The test system of assay [5] is A549 non-small-cell-lung cancer cells. The assay can be described thus: MTT antiproliferative assay, A549. The class given is cell-based, human. The settings on record: FIG. 3; concentrations up to 100 μM. The protocol:
as §4, §2, §3

Assay [6] has as its system MES-SA uterine sarcoma cells. The assay can be described thus: MTT antiproliferative assay, MES-SA. The settings on record: Homo sapiens, 48 h treatment, ± SD, read-out: GI50 in vitro, MES-SA. It counts as cell-based. The protocol:
Compared with the intrinsic drug resistance, as described above for such cancers as glioblastoma and melanoma, a large variety of tumors can also develop resistance to anticancer drugs resulting in MDR as explained previously. To assess whether the hydroxamates can overcome this resistance mechanism, selected hydroxamates were tested against MDR cells (Table 4). The MDR uterine sarcoma cell line MES-SA/Dx5 was utilized for this experiment. This cell line was established from the parent uterine sarcoma MES-SA, grown in the presence of increasing concentrations of doxorubicin and known to be resistant to a number of P-gp substrates. […] In contrast, there was only a small variation in the sensitivities of the two cell lines towards the hydroxamates indicating their potential to overcome clinical multi-drug resistance.
as §2, §3

Like-named read-outs stand apart in the source and are kept apart here.

Usually GI50 stands for the concentration giving 50% growth inhibition. On to `O=C(NO)C(c1ccccc1)c1c(-c2ccccc2)[nH]c2ccccc12` (centres unmarked) [Compound 3aaaa], for which the GI50 in assay [1] (Table 1, 48 h treatment) is 23 ± 2.6 µM; in assay [2] (MCF7, Table 1, 48 h treatment), 31 ± 0.6 µM. Moreover, the “antiproliferative potency (GI50)” value in assay [3] is reported as “double-digit micromolar”.
In the case of `O=C(NO)C(c1ccc([N+](=O)[O-])cc1)c1c(-c2ccccc2)[nH]c2ccccc12` (centres unmarked) [Compound 3aaab], the GI50 in assay [1] (Table 1, 48 h treatment) was over 50 µM; in assay [2] (MCF7, Table 1, 48 h treatment), over 50 µM.
Take `O=C(NO)C(c1ccccc1)c1c(-c2ccccc2[N+](=O)[O-])[nH]c2ccccc12` (centres unmarked) [Compound 3aaba]: the GI50 in assay [1] (Table 1, 48 h treatment) was over 50 µM; in assay [2] (MCF7, Table 1, 48 h treatment), over 50 µM.
Consider `COc1ccc(-c2[nH]c3ccccc3c2C(C(=O)NO)c2ccccc2)cc1` (centres unmarked) [Compound 3aaca], for which the GI50 was over 50 µM in assay [1] (Table 1, 48 h treatment) and over 50 µM in assay [2] (MCF7, Table 1, 48 h treatment).
Regarding `Cc1[nH]c2ccccc2c1C(C(=O)NO)c1ccccc1` (centres unmarked) [Compound 3aada], the GI50 in assay [1] (Table 1, 48 h treatment) is over 50 µM; in assay [2] (MCF7, Table 1, 48 h treatment), over 50 µM.
As for `O=C(NO)C(c1ccccc1)c1c(-c2cccc3ccccc23)[nH]c2ccccc12` (centres unmarked) [Compound 3aaea], the GI50 came to 25.7 ± 1.6 µM in assay [1] (Table 1, 48 h treatment) and 32 ± 0.9 µM in assay [2] (MCF7, Table 1, 48 h treatment).
Regarding `O=C(NO)C(c1cccc(F)c1)c1c(-c2ccc3ccccc3c2)[nH]c2ccccc12` (centres unmarked) [Compound 3aafc], the GI50 in assay [1] (Table 2, 48 h treatment) was found to be 32.9 ± 1.1 µM; in assay [2] (MCF7, Table 2, 48 h treatment), 20.4 ± 0.1 µM.
For `O=C(NO)C(c1ccccc1Br)c1c(-c2ccc3ccccc3c2)[nH]c2ccccc12` (centres unmarked) [Compound 3aafd], in that order: 13 ± 0.4 µM and 2.7 µM.
For `COc1ccc(C(C(=O)NO)c2c(-c3ccc4ccccc4c3)[nH]c3ccccc23)cc1OC` (centres unmarked) [Compound 3aaff], in that order: 26.9 ± 0.3 µM and 2.4 ± 0.1 µM.
Turning to `O=C(NO)C(c1ccc(F)cc1)c1c(-c2ccc3ccccc3c2)[nH]c2ccccc12` (centres unmarked) [Compound 3aafg], the GI50 in assay [1] (Table 2, 48 h treatment) turned out to be 18.2 ± 0.9 µM; in assay [2] (MCF7, Table 2, 48 h treatment), 6.3 ± 1.1 µM.
For the compound `O=C(NO)C(c1ccccc1Cl)c1c(-c2ccc3ccccc3c2)[nH]c2ccccc12` (centres unmarked) [Compound 3aafh], the GI50 in assay [1] (Table 2, 48 h treatment) came to 31 ± 0.2 µM; in assay [2] (MCF7, Table 2, 48 h treatment), 4.9 ± 0.1 µM.
For `O=C(NO)C(c1ccc(Cl)c(Cl)c1)c1c(-c2ccc3ccccc3c2)[nH]c2ccccc12` (centres unmarked) [Compound 3aafi], in that order: 31.7 ± 1.7 µM and 12.2 ± 1 µM.
With `O=C(NO)C(c1ccc(OC(F)(F)F)cc1)c1c(-c2ccc3ccccc3c2)[nH]c2ccccc12` (centres unmarked) [Compound 3aafj], the GI50 in assay [1] (Table 2, 48 h treatment) worked out at 27.4 ± 0.2 µM; in assay [2] (MCF7, Table 2, 48 h treatment) it was 10.2 ± 0.1 µM.
With `CCOc1ccc(C(C(=O)NO)c2c(-c3ccc4ccccc4c3)[nH]c3ccccc23)cc1` (centres unmarked) [Compound 3aafl], the GI50 was 17.3 ± 0.2 µM in assay [1] (Table 2, 48 h treatment) and 8.5 ± 0.3 µM in assay [2] (MCF7, Table 2, 48 h treatment).
With `Cc1ccc(C(C(=O)NO)c2c(-c3ccc4ccccc4c3)[nH]c3ccccc23)cc1` (centres unmarked) [Compound 3aafm], the concentration for 50% growth inhibition (GI50) turned out to be 6.3 ± 1.3 µM in assay [1] (Table 2, 48 h treatment) and 4.9 ± 0.2 µM in assay [2] (MCF7, Table 2, 48 h treatment). Further, the “antiproliferative potency (GI50)” value in assay [3] is listed as “single-digit micromolar”.
Taken in the same sequence, the figures for `Cc1cccc(C(C(=O)NO)c2c(-c3ccc4ccccc4c3)[nH]c3ccccc23)c1` (centres unmarked) [Compound 3aafn] were 6.9 ± 0.4 µM, 7.4 ± 0.6 µM and “single-digit micromolar”.
Taken in the same sequence, the figures for `CCN(CC)c1ccc(C(C(=O)NO)c2c(-c3ccc4ccccc4c3)[nH]c3ccccc23)cc1` (centres unmarked) [Compound 3aafo] were 4.1 ± 0.2 µM, 7.9 ± 0.7 µM and “single-digit micromolar”.
Regarding `Cc1ccc2[nH]c(-c3ccc4ccccc4c3)c(C(C(=O)NO)c3ccccc3)c2c1` (centres unmarked) [Compound 3abfa], the GI50 is over 50 µM in assay [1] (Table 1, 48 h treatment) and over 50 µM in assay [2] (MCF7, Table 1, 48 h treatment).
`COc1ccc2[nH]c(-c3ccc4ccccc4c3)c(C(C(=O)NO)c3ccccc3)c2c1` (centres unmarked) [Compound 3acfa]: the GI50 in assay [1] (Table 1, 48 h treatment) was over 50 µM; in assay [2] (MCF7, Table 1, 48 h treatment) it was over 50 µM.
With `Cn1c(-c2ccc3ccccc3c2)c(C(C(=O)NO)c2ccccc2)c2ccccc21` (centres unmarked) [Compound 3bafa], the GI50 in assay [1] (Table 1, 48 h treatment) amounted to 19.7 ± 1.7 µM; in assay [2] (MCF7, Table 1, 48 h treatment), 10 ± 0.3 µM.
Taken in the same sequence, the figures for `Cn1c(-c2ccc3ccccc3c2)c(C(C(=O)NO)c2cccc(F)c2)c2ccccc21` (centres unmarked) [Compound 3bafc] were 36.8 ± 0.4 µM and 25.7 ± 1.4 µM.
Turning to `Cn1c(-c2ccc3ccccc3c2)c(C(C(=O)NO)c2ccccc2Br)c2ccccc21` (centres unmarked) [Compound 3bafd], the GI50 amounted to 24 ± 0.2 µM in assay [1] (Table 1, 48 h treatment) and 11.2 ± 0.9 µM in assay [2] (MCF7, Table 1, 48 h treatment).
`CCCCn1c(-c2ccc3ccccc3c2)c(C(C(=O)NO)c2ccc(C(C)C)cc2)c2ccccc21` (centres unmarked) [Compound 3cafe]: the GI50 in assay [1] (Table 2, 48 h treatment) is 6.6 ± 0.5 µM; in assay [2] (MCF7, Table 2, 48 h treatment) it was 7.7 ± 0.4 µM. In addition, in assay [3], the “antiproliferative potency (GI50)” value is “single-digit micromolar”.
`CCC(C)n1c(-c2ccc3ccccc3c2)c(C(C(=O)NO)c2ccccc2)c2ccccc21` (centres unmarked) [Compound 3dafa]: the GI50 in assay [1] (Table 2, 48 h treatment) worked out at 9.8 ± 0.8 µM; in assay [2] (MCF7, Table 2, 48 h treatment), 9.3 ± 0.3 µM. Further, in assay [3], the “antiproliferative potency (GI50)” value is on record as “single-digit micromolar”.
Take `CC(=O)O[C@H]1C(=O)[C@@]2(C)[C@H]([C@H](OC(=O)c3ccccc3)[C@]3(O)C[C@H](OC(=O)[C@H](O)[C@@H](NC(=O)c4ccccc4)c4ccccc4)C(C)=C1C3(C)C)[C@]1(OC(C)=O)CO[C@@H]1C[C@@H]2O` [Taxol, reference compound]: the “cells whose proliferation is not affected, U87” value in assay [4] is reported as “ca. 50%”. Further, in assay [5], the “cells whose proliferation is not affected, A549” value was “ca. 50%”. Moreover, the GI50 in assay [6] amounted to 0.007 ± 0.001 µM.
For `COc1cc([C@@H]2c3cc4c(cc3[C@H](O)[C@H]3COC(=O)[C@H]23)OCO4)cc(OC)c1OC` [podophyllotoxin, reference compound], in assay [4], the “cells whose proliferation is not affected, U87” value is on record as “ca. 50%”. Further, the “cells whose proliferation is not affected, A549” value in assay [5] is given as “ca. 50%”.
